What was measured:
JWA gene = experiment: JWA reporter gene assay (dual-luciferase) in HBE cells; format: cell-based, human; details: 24 hours treatment
From the text: 2012 bp upstream of the JWA transcription start site (referred to “JWA promoter sequence” hereafter) was amplified by RT-PCR according to the human-derived JWA promoter sequence (FIG. 35), and inserted into a pGL3-Neo vector by using KpnI and NheI restriction enzyme sites, thereby yielding a recombinant vector (FIG. 36) containing the JWA promoter sequence. The recombinant vector was transferred into E. coli. (DH5a). Positive clones were sequenced to verify accuracy, thereby obtaining a neomycin-resistant reporter plasmid containing the JWA gene promoter. The plasmid and corresponding strains were stored at −70° C. for use.
Human bronchial epithelial (HBE) cells were cultured at a density of 3000 cells per well in a 384-well plate and allowed to adhere together. […]
After incubation, the 384-well plate was taken out, allowing the reagents and cells to equilibrate to room temperature of 18-22° C. […] The luciferase activity was analyzed by using a Dual-Luciferase Reporter Assay kit (Promega) and measured by a chemiluminescence analyzer (3010 C chemiluminescence analyzer). […]

JWA protein = experiment: Western blot of JWA protein expression in HBE cells; format: cell-based, human; details: 24 hours and 48 hours, 1, 10, and 100 μmol/L
Protocol: The HBE cells in the logarithmic growth phase were digested, plated at a density of 5×10^5/cell onto a 60 mm cell culture dish, and incubated in different doses of the compound JAC-4 for 24 hours or 48 hours, respectively. The cells were then treated with 0.18 mL of radio immunoprecipitation assay (RIPA, containing 0.5% PMSF) cell lysate for protein extraction, and centrifuged at 12,000×g for 15 minutes. The supernatant was collected and the protein concentration was measured. The proteins were heated and separated by electrophoresis through 12.5% polyacrylamide gel. 70 μg of the heated proteins was loaded into each well and separated by electrophoresis at 60 V for 30 minutes and 90 V for 1-1.5 hours. The proteins were then transferred from the gel to a PVDF membrane using a mini-genie transfer apparatus. The PVDF membrane was blocked with 5% skim milk, incubated at room temperature for 1-2 hours, and washed with TBST (containing 0.1% Tween 20). The washing step was repeated 3 times for 5 minutes each time. The blocked membrane was incubated overnight with primary antibody at 4° C., and then washed with TBS (containing 0.1% Tween 20). The washing step was repeated 3 times for 5 minutes each time. The blocked membrane was incubated at room temperature for 1-2 hours with secondary antibody, and then washed with TBST (containing 0.1% Tween 20). […]

[1] = HPLC analysis of compound in processed, Co60-sterilized test feed; format: physicochemical; details: pelleted feed, Co60 irradiation
From the text: The compound JAC-4 (purity>99%) was mixed with an equal amount of standard mouse feed. Specifically, 1 g of compound JAC-4 was thoroughly mixed with 1 g of basic feed materials; 2 g of the mixture was thoroughly mixed with 2 g of basic feed materials; 4 g of the mixture was thoroughly mixed with 4 g of basic feed materials, and so on, thereby obtaining two test feeds respectively containing 1 g/kg and 2 g/kg of the compound JAC-4. According to the standard operating procedures for feed, the test feeds were processed into pellets, vacuum packaged, and sterilized by a Co60 source irradiation. The feed processing was entrusted to a professional company. To verify that the compound JAC-4 was evenly distributed in the mixed feeds and not damaged in the structure during processing, the sterilized feeds were randomly sampled and fully extracted with organic solvents. The content of the compound JAC-4 was then measured by High Performance Liquid Chromatography and it was confirmed that the compound JAC-4 was not damaged and the content thereof met the requirements (FIGS. 38-40).

12-month-old mice = experiment: Feeding 12-month-old mice with test feed containing 1 g/kg JAC-4; format: in vivo
Protocol: 12-month-old mice were housed in specific pathogen free (SPF) conditions at an ambient temperature of 22±2° C. and a relative humidity of 40%-60%, in day/night cycles of 12 h/12 h simulated by lighting. Mice were fed with sterile acidified water, common feeds (without compound JAC-4) or test feeds (with compound JAC-4).
In general, the daily feed consumption of each mouse is about 10% of its body weight. Therefore, when the mice consume 1 g/kg of JAC-4 experimental feed, it is equivalent to the daily intake of 100 mg/kg of JAC-4. The mice were weighed every two weeks from the start of feeding and scored on the aging appearance every two weeks from the sixth week. The higher the score, the more obvious the aging appearance. The mice were photographed monthly and changes in appearance were recorded. In all the experiments attention was paid to ethical guidelines for the investigation of experimental pain in conscious animals.

[2] = test system: naturally aging mice (24 months old); experiment: Feeding naturally aging 24-month-old mice with test feed containing 2 g/kg JAC-4; format: in vivo; details: test feed 2 g/kg, 10 weeks
Protocol: Feeding 24-month-old mice with the test feed containing 2 g/kg of the compound JAC-4 (equivalent to 200 mg JAC-4/kg body weight).
Mice were housed in the same conditions as Example 12. After feeding for 10 weeks, the mice were anesthetized. The whole blood was collected, allowed to stand for 30 min at room temperature, and centrifuged at 3000 rpm for 15 min. The supernatant, i.e., serum, was collected and analyzed by Hitachi 7100 automatic biochemical analyzer. Liver, spleen and kidney tissues of the mice were isolated on ice, fixed with 4% paraformaldehyde, or frozen at −80° C. The fixed tissues were processed into a paraffin section or frozen section with a thickness of 5 μm, stained with HE to visualize the morphological and pathological changes in the liver, spleen and kidney. The liver section was stained with oil red O for fat deposition and stained with periodic acid-Schiff (PAS) for glycogen. Total protein was extracted from the liver and spleen frozen at −80° C., and cell membrane proteins were extracted from the liver frozen at −80° C. Western blot was performed to detect the expression of JWA protein in liver and spleen tissues, the expression of p-AKT, AKT, p-GSK3β and GSK3β proteins in liver tissues, and the expression of glucose transporter (Glut 2) in cell membrane proteins of liver tissues. A biochemical kit (purchased from Nanjing Jiancheng Bioengineering Institute, Nanjing, China) was used to detect the activities of Superoxide dismutase (SOD), as well as the main rate-limiting enzymes of glucose and lipid metabolism in liver tissues. In all the experiments attention was paid to ethical guidelines for the investigation of experimental pain in conscious animals.

[3] = test feed 1 g/kg vs common feed

c1ccc(CSc2nnc(C3COc4ccccc4O3)o2)nc1 (centres unmarked) [JAC-4]
activation of JWA gene expression (luciferase reporter) (JWA gene): sharp dose-effect relationship | expression level of JWA protein (JWA protein): enhanced | integrity of compound in feed after processing and sterilization [1]: not damaged | body weight (12-month-old mice; 22nd week, test feed 1 g/kg (100 mg/kg daily) vs common feed): no statistical difference | hair loss (12-month-old mice; [3]): significant decrease | score of aging appearance (12-month-old mice; [3]): significant decrease | SOD in the liver [2]: increase | SOD in the serum [2]: increase | glycogen synthase in the liver [2]: increased | rate-limiting enzyme related to glucose decomposition in the liver [2]: increased | serum glucose [2]: significantly reduced | serum triglycerides [2]: significantly reduced | age-related inflammatory cell infiltration around the central vein of the liver ([2]; HE staining): significantly reduced | morphology of liver, kidney and spleen ([2]; HE staining): did not produce observable abnormal changes | glycogen synthesis in the liver ([2]; PAS staining): increased | AKT phosphorylation in liver ([2]; Western blot): activated | GSK3β in liver ([2]; Western blot): inhibited | Glut 2 expression in liver cell membranes ([2]; Western blot): increased | expression of JWA protein in liver tissue ([2]; Western blot): increased significantly | expression of JWA protein in spleen tissue ([2]; Western blot): increased significantly

Reference: patent US20220023278A1, “ANTI-AGING METHOD COMPRISING APPLYING JWA GENE” (Simcere Pharmaceutical Co., Ltd., priority 2019, published 2022)
